{"source": "ChEMBL document CHEMBL4414665", "about": "“Dynamic Chirality in the Mechanism of Action of Allosteric CD36 Modulators of Macrophage-Driven Inflammation” (J Med Chem, 2019)", "key": {"[1]": {"target": "Platelet glycoprotein 4 (Mus musculus) (UniProt Q08857)", "sequence (Q08857 whole entry)": "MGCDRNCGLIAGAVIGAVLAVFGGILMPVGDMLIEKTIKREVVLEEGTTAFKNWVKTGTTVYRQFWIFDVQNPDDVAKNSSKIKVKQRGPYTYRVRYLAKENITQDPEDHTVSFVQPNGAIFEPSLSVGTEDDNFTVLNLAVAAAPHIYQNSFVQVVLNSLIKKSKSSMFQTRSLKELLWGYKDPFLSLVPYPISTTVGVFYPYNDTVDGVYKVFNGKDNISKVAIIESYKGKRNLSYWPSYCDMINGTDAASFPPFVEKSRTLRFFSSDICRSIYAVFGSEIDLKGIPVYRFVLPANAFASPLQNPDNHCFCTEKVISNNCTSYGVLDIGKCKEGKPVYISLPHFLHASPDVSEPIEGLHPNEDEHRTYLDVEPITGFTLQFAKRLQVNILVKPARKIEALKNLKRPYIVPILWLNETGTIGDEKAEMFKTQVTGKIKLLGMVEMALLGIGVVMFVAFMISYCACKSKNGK", "assay": "Modulation activity at CD36 in mouse RAW264.7 cells assessed as inhibition of TLR-2 agonist R-FSL-1-induced NO overproduction relative to control", "assay_type": "cell-based", "set-up": "concentration or dose not given beside the values", "conditions": "concentration not given here"}, "[2]": {"target": "Platelet glycoprotein 4 (Mus musculus) (UniProt Q08857)", "assay": "Modulation activity at CD36 in mouse J774 cells assessed as promotion of cholesterol efflux at 100 nM pre-incubated for 17 hrs before apolipoprotein A-I addition for 4 hrs by fluorescent-labeled cholesterol kit based assay relative to control", "assay_type": "cell-based"}, "[3]": {"target": "Platelet glycoprotein 4 (Rattus norvegicus) (UniProt Q07969)", "sequence (Q07969 whole entry)": "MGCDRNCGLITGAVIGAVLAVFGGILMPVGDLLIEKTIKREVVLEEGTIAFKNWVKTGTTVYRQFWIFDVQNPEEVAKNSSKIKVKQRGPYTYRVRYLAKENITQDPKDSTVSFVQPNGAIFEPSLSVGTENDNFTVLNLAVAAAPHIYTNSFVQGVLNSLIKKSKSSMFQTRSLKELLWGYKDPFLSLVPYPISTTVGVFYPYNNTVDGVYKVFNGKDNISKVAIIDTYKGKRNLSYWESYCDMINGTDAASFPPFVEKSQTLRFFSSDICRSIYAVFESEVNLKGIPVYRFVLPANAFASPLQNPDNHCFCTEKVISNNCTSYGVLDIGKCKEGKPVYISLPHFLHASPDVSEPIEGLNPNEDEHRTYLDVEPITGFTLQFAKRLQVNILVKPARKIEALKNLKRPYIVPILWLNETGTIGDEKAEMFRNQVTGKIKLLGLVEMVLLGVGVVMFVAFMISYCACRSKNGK", "assay": "Displacement of photoactivated [125I]-Tyr-Bpa-Ala-hexarelin from CD36 in rat heart purified membranes"}, "[4]": {"target": "Platelet glycoprotein 4 (Rattus norvegicus) (UniProt Q07969)", "assay": "Displacement of photoactivated [125I]-Tyr-Bpa-Ala-hexarelin from CD36 in rat heart purified membranes relative to control", "assay_type": "cell membranes"}}, "note": "Activity calls are given as the source filed them. The calls are words filed in the database; no cut-off is given here.", "data": [{"smiles": "C=CCN1CC#CC[C@@H](NC(=O)[C@H](C)N)C(=O)N[C@@H](C)C(=O)N[C@@H](Cc2c[nH]c3ccccc23)C(=O)N[C@H](Cc2ccccc2)C(=O)N[C@H](C(N)=O)CCCC1", "values": [{"measurement": "inhibition", "setting": "[1]", "result": 9, "unit": "%"}, {"measurement": "Activity", "setting": "[2]", "result": 6, "unit": "%"}, {"measurement": "IC50", "setting": "[3]", "result": 3320, "unit": "nM"}]}, {"smiles": "C=CCN1CC#CC[C@H](NC(=O)[C@H](C)N)C(=O)N[C@H](Cc2c[nH]c3ccccc23)C(=O)N[C@@H](C)C(=O)N[C@@H](Cc2c[nH]c3ccccc23)C(=O)N[C@H](Cc2ccccc2)C(=O)N[C@H](C(N)=O)CCCC1", "values": [{"measurement": "inhibition", "setting": "[1]", "result": 17, "unit": "%"}, {"measurement": "Activity", "setting": "[2]", "result": 7, "unit": "%"}, {"measurement": "IC50", "setting": "[3]", "result": 660, "unit": "nM"}]}, {"smiles": "C=CCN1CC#CC[C@H](NC(=O)[C@H](C)N)C(=O)N[C@@H](C)C(=O)N[C@@H](Cc2c[nH]c3ccccc23)C(=O)N[C@H](Cc2ccccc2)C(=O)N[C@H](C(N)=O)CCCC1", "values": [{"measurement": "inhibition", "setting": "[1]", "result": 16, "unit": "%"}, {"measurement": "Activity", "setting": "[2]", "result": 13, "unit": "%"}, {"measurement": "IC50", "setting": "[3]", "result": 1470, "unit": "nM"}]}, {"smiles": "C=CCN1CC#CCN(NC(=O)[C@H](C)N)C(=O)N[C@H](Cc2c[nH]c3ccccc23)C(=O)N[C@@H](C)C(=O)N[C@@H](Cc2c[nH]c3ccccc23)C(=O)N[C@H](Cc2ccccc2)C(=O)N[C@H](C(N)=O)CCCC1", "values": [{"measurement": "inhibition", "setting": "[1]", "result": 45, "unit": "%"}, {"measurement": "Activity", "setting": "[2]", "result": 11, "unit": "%"}, {"measurement": "IC50", "setting": "[3]", "result": 80, "unit": "nM"}]}, {"smiles": "C=CCN1CC#CCN(NC(=O)[C@H](C)N)C(=O)N[C@@H](C)C(=O)N[C@@H](Cc2c[nH]c3ccccc23)C(=O)N[C@H](Cc2ccccc2)C(=O)N[C@H](C(N)=O)CCCC1", "values": [{"measurement": "inhibition", "setting": "[1]", "result": 29, "unit": "%"}, {"measurement": "Activity", "setting": "[2]", "result": 6, "unit": "%"}, {"measurement": "IC50", "setting": "[3]", "result": 240, "unit": "nM"}]}, {"smiles": "C=CCN1CC#CCN(N)C(=O)N[C@H](Cc2c[nH]c3ccccc23)C(=O)N[C@@H](C)C(=O)N[C@@H](Cc2c[nH]c3ccccc23)C(=O)N[C@H](Cc2ccccc2)C(=O)N[C@H](C(N)=O)CCCC1", "values": [{"measurement": "inhibition", "setting": "[1]", "result": 18, "unit": "%"}, {"measurement": "inhibition", "setting": "[4]", "result": "inactive"}]}, {"smiles": "C=CCN1CC#CCN(NC(=O)[C@H](C)NC(C)=O)C(=O)N[C@H](Cc2c[nH]c3ccccc23)C(=O)N[C@@H](C)C(=O)N[C@@H](Cc2c[nH]c3ccccc23)C(=O)N[C@H](Cc2ccccc2)C(=O)N[C@H](C(N)=O)CCCC1", "values": [{"measurement": "inhibition", "setting": "[1]", "result": 20, "unit": "%"}, {"measurement": "Activity", "setting": "[2]", "result": 17, "unit": "%"}, {"measurement": "IC50", "setting": "[3]", "result": 670, "unit": "nM"}]}, {"smiles": "C=CCN1CC#CC[C@@H](NC(=O)[C@H](C)N)C(=O)N[C@H](Cc2c[nH]c3ccccc23)C(=O)N[C@@H](C)C(=O)N[C@@H](Cc2c[nH]c3ccccc23)C(=O)N[C@H](Cc2ccccc2)C(=O)N[C@H](C(N)=O)CCCC1", "values": [{"measurement": "inhibition", "setting": "[1]", "result": 10, "unit": "%"}, {"measurement": "Activity", "setting": "[2]", "result": 6, "unit": "%"}, {"measurement": "IC50", "setting": "[3]", "result": 1040, "unit": "nM"}]}]}
